The values below come from patent publication US12539292B2, “BRM targeting compounds and associated methods of use” (Arvinas Operations, Inc., priority 2018, dated 2026).

This test addresses T1, BRM (Homo sapiens, UniProt P51531).
T1 construct: In-Cell Western Screen of BRM Degradation in SW1573 Cells; endogenous in cells; host or cells: SW1573
The test can be described thus: In-cell Western screen of BRM degradation in SW1573 cells (Dmax and DC50). The test is classed as cell-based. The method in brief:
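BRM levels were read by LI-COR in-cell Western after two-channel (800/680 nm) immunostaining of fixed, Triton-permeabilised SW1573 cells.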

Setting [1] is: BRM degradation, SW1573 cells, read-out: DC50.
[2] abbreviates: BRM degradation, SW1573 cells, tested at the top concentration of between 0.3 and 10 μM, read-out: Dmax (%) (% degraded).
Where [3] appears, read: BRM degradation, SW1573 cells, when tested at the top concentration of between 0.3 and 10 μM, read-out: Dmax (%) (% degraded).

Where two headings read alike, the source gives them in different places. A value given as a limit tells only on which side of the number the result lay.

T1 sequence (P51531 whole entry): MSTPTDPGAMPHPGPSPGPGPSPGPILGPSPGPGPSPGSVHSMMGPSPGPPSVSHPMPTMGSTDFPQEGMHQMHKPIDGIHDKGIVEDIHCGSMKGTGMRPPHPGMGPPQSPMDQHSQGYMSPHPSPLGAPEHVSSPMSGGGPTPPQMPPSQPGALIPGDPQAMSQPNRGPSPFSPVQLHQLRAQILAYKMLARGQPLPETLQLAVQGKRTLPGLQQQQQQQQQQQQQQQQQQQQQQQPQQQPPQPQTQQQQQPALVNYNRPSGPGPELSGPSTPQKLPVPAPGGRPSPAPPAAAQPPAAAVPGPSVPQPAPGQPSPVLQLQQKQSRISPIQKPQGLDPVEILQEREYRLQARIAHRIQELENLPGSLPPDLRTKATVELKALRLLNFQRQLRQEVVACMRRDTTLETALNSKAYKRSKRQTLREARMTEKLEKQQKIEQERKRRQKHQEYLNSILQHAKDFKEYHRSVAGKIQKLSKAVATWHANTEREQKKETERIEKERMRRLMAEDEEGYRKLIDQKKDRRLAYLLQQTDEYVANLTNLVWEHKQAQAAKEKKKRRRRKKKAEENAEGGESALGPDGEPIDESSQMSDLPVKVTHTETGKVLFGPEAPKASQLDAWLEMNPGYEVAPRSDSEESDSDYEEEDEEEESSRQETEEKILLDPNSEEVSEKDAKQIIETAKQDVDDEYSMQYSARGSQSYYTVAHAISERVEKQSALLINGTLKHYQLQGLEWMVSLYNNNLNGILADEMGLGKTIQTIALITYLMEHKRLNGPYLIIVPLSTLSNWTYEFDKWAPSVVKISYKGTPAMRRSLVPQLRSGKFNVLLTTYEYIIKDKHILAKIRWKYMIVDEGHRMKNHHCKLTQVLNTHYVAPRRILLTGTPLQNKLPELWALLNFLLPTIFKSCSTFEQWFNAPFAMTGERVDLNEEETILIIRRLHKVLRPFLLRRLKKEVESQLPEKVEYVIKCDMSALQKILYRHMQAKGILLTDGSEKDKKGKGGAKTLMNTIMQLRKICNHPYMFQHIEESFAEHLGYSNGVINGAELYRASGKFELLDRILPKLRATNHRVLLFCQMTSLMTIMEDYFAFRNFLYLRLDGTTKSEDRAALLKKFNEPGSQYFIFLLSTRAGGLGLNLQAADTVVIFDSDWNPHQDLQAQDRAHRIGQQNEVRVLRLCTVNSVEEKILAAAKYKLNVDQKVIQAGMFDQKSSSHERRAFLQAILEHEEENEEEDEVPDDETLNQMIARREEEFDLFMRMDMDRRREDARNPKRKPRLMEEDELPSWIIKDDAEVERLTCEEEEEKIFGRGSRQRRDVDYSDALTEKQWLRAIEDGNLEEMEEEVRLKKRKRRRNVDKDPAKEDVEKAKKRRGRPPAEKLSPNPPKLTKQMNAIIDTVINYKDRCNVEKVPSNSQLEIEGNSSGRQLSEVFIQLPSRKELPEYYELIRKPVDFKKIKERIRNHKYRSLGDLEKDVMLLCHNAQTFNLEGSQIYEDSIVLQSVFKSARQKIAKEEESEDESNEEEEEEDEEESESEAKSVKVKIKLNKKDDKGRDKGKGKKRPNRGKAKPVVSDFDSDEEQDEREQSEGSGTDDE

Take `Cc1ncsc1-c1ccc([C@H](C)NC(=O)[C@@H]2C[C@@H](O)CN2C(=O)[C@H](c2cc(OCCN3CCN(CCCCN4CCOC5(CCN(c6cc(-c7ccccc7O)nnc6N)CC5)C4)CC3)no2)C(C)C)cc1` [compound 205, (2S,4R)-1-((S)-2-(3-(2-(4-(4-(9-(3-amino-6-(2-hydroxyphenyl)pyridazin-4-yl)-1-oxa-4,9-diazaspiro[5.5]undecan-4-yl)butyl)piperazin-1-yl)ethoxy)isoxazol-5-yl)-3-methylbutanoyl)-4-hydroxy-N-((S)-1-(4-(4-methylthiazol-5-yl)phenyl)ethyl)pyrrolidine-2-carboxamide]: the DC50 under setting [1] is above 30 nM. In addition, under setting [2], the Dmax was above 75%.
For the compound `Cc1ncsc1-c1ccc([C@H](C)NC(=O)[C@@H]2C[C@@H](O)CN2C(=O)[C@@H](NC(=O)COCCCc2ccc(C(C)n3cc(-c4cc(-c5ccccc5O)nnc4N)cn3)cn2)C(C)(C)C)cc1` (stereo partly drawn) [compound 61, (2S,4R)-1-((2S)-2-(2-(3-(5-(1-(4-(3-amino-6-(2-hydroxyphenyl)pyridazin-4-yl)-1H-pyrazol-1-yl)ethyl)pyridin-2-yl)propoxy)acetamido)-3,3-dimethylbutanoyl)-4-hydroxy-N-((S)-1-(4-(4-methylthiazol-5-yl)phenyl)ethyl)pyrrolidine-2-carboxamide], under setting [1], the DC50 was in the range of 10 to 30 nM. Moreover, under setting [3], the Dmax was above 75%.
Consider `Cc1ncsc1-c1ccc([C@H](C)NC(=O)[C@@H]2C[C@@H](O)CN2C(=O)[C@@H](c2cc(CCCN3CCC(O[C@H]4C[C@H](Oc5cc(N6C7CCC6CN(c6cc(-c8ccccc8O)nnc6N)C7)ccn5)C4)CC3)no2)C(C)C)cc1` [compound 191, (2S,4R)-1-((2R)-2-(3-(3-(4-((1r,3R)-3-((4-(3-(3-amino-6-(2-hydroxyphenyl)pyridazin-4-yl)-3,8-diazabicyclo[3.2.1]octan-8-yl)pyridin-2-yl)oxy)cyclobutoxy)piperidin-1-yl)propyl)isoxazol-5-yl)-3-methylbutanoyl)-4-hydroxy-N-((S)-1-(4-(4-methylthiazol-5-yl)phenyl)ethyl)pyrrolidine-2-carboxamide], for which the DC50 under setting [1] was below 2.5 nM. Besides, the Dmax under setting [2] was above 75%.
Take `Cc1ncsc1-c1ccc([C@H](C)NC(=O)[C@@H]2C[C@@H](O)CN2C(=O)[C@H](c2cc(CCCN3CCN(CCOc4cc(N5C6CCC5CN(c5cc(-c7ccccc7O)nnc5N)C6)ccn4)CC3)no2)C(C)C)cc1` [compound 170, (2S,4R)-1-((2S)-2-(3-(3-(4-(2-((4-(3-(3-amino-6-(2-hydroxyphenyl)pyridazin-4-yl)-3,8-diazabicyclo[3.2.1]octan-8-yl)pyridin-2-yl)oxy)ethyl)piperazin-1-yl)propyl)isoxazol-5-yl)-3-methylbutanoyl)-4-hydroxy-N-((S)-1-(4-(4-methylthiazol-5-yl)phenyl)ethyl)pyrrolidine-2-carboxamide]: the DC50 under setting [1] was 2.5 to 10 nM. The Dmax under setting [2] was above 75%.
Take `CC[C@H](NC(=O)[C@@H]1C[C@@H](O)CN1C(=O)[C@H](c1cc(OCCN2CCC(O[C@H]3C[C@H](Oc4cc(N5C6CCC5CN(c5cc(-c7ccccc7O)nnc5N)C6)ccn4)C3)CC2)no1)C(C)C)c1ccc(-c2scnc2C)cc1` [compound 350, (2S,4R)-1-((2S)-2-(3-(2-(4-((1r,3S)-3-((4-(3-(3-amino-6-(2-hydroxyphenyl)pyridazin-4-yl)-3,8-diazabicyclo[3.2.1]octan-8-yl)pyridin-2-yl)oxy)cyclobutoxy)piperidin-1-yl)ethoxy)isoxazol-5-yl)-3-methylbutanoyl)-4-hydroxy-N-((S)-1-(4-(4-methylthiazol-5-yl)phenyl)propyl)pyrrolidine-2-carboxamide]: the DC50 under setting [1] is above 30 nM.
Regarding `Cc1ncsc1-c1ccc([C@H](C)NC(=O)[C@@H]2C[C@@H](O)CN2C(=O)[C@@H](c2cc(N3CCC4(CC3)CN(C[C@H]3C[C@H](Oc5cc(N6C7CCC6CN(c6cc(-c8ccccc8O)nnc6N)C7)ccn5)C3)CCO4)no2)C(C)C)cc1` [compound 624, (2S,4R)-1-((2R)-2-(3-(4-(((1r,3R)-3-((4-(3-(3-amino-6-(2-hydroxyphenyl)pyridazin-4-yl)-3,8-diazabicyclo[3.2.1]octan-8-yl)pyridin-2-yl)oxy)cyclobutyl)methyl)-1-oxa-4,9-diazaspiro[5.5]undecan-9-yl)isoxazol-5-yl)-3-methylbutanoyl)-4-hydroxy-N-((S)-1-(4-(4-methylthiazol-5-yl)phenyl)ethyl)pyrrolidine-2-carboxamide], the Dmax (BRM degradation, SW1573 cells, Table 2D, read-out: **Dmax (%) (% degraded)) is above 75%. Moreover, where the note is “BRM degradation, SW1573 cells, Table 2D, read-out: *DC50”, the DC50 was below 2.5 nM.
In the case of `Cc1ncsc1-c1ccc(CNC(=O)[C@@H]2C[C@@H](O)CN2C(=O)[C@@H](NC(=O)COCCOCCn2cc(-c3cc(-c4ccccc4O)nnc3N)cn2)C(C)(C)C)cc1` [compound 11, (2S,4R)-1-((S)-2-(2-(2-(2-(4-(3-amino-6-(2-hydroxyphenyl)pyridazin-4-yl)-1H-pyrazol-1-yl)ethoxy)ethoxy)acetamido)-3,3-dimethylbutanoyl)-4-hydroxy-N-(4-(4-methylthiazol-5-yl)benzyl)pyrrolidine-2-carboxamide], the DC50 under setting [1] was above 30 nM. The Dmax under setting [3] is above 75%.
As for `Cc1ncsc1-c1ccc([C@H](C)NC(=O)[C@@H]2C[C@@H](O)CN2C(=O)[C@H](c2cc(N3CCC4(CCN(C[C@H]5C[C@H](Oc6cc(N7C8CCC7CN(c7cc(-c9ccccc9O)nnc7N)C8)ccn6)C5)CC4)CC3)no2)C(C)C)cc1` [compound 647, (2S,4R)-1-((2S)-2-(3-(9-(((1r,3S)-3-((4-(3-(3-amino-6-(2-hydroxyphenyl)pyridazin-4-yl)-3,8-diazabicyclo[3.2.1]octan-8-yl)pyridin-2-yl)oxy)cyclobutyl)methyl)-3,9-diazaspiro[5.5]undecan-3-yl)isoxazol-5-yl)-3-methylbutanoyl)-4-hydroxy-N-((S)-1-(4-(4-methylthiazol-5-yl)phenyl)ethyl)pyrrolidine-2-carboxamide], the DC50 under setting [1] is above 30 nM.
In the case of `Cc1ncsc1-c1ccc([C@H](C)NC(=O)[C@@H]2C[C@@H](O)CN2C(=O)[C@@H](c2cc(OCCN3CCC(O[C@H]4C[C@H](Oc5cc(N6C7CCC6CN(c6ccn8cc(-c9ccccc9O)nc8n6)C7)ccn5)C4)CC3)no2)C(C)C)cc1` [compound 489, (2S,4R)-4-hydroxy-1-((2R)-2-(3-(2-(4-((1r,3R)-3-((4-(3-(2-(2-hydroxyphenyl)imidazo[1,2-a]pyrimidin-7-yl)-3,8-diazabicyclo[3.2.1]octan-8-yl)pyridin-2-yl)oxy)cyclobutoxy)piperidin-1-yl)ethoxy)isoxazol-5-yl)-3-methylbutanoyl)-N-((S)-1-(4-(4-methylthiazol-5-yl)phenyl)ethyl)pyrrolidine-2-carboxamide], the DC50 (target protein degradation, read-out: BRM DC50) is above 30 nM.
For the compound `Cc1ncsc1-c1ccc([C@H](C)NC(=O)[C@@H]2C[C@@H](O)CN2C(=O)[C@H](c2cc(N3CCC(C#CCN4CCC(Oc5cc(N6C7CCC6CN(c6cc(-c8ccccc8O)nnc6N)C7)ccn5)CC4)CC3)no2)C(C)C)cc1` [compound 676, (2S,4R)-1-((2S)-2-(3-(4-(3-(4-((4-(3-(3-amino-6-(2-hydroxyphenyl)pyridazin-4-yl)-3,8-diazabicyclo[3.2.1]octan-8-yl)pyridin-2-yl)oxy)piperidin-1-yl)prop-1-yn-1-yl)piperidin-1-yl)isoxazol-5-yl)-3-methylbutanoyl)-4-hydroxy-N-((S)-1-(4-(4-methylthiazol-5-yl)phenyl)ethyl)pyrrolidine-2-carboxamide], under setting [1], the DC50 fell in the range of 2.5 to 10 nM. Besides, the Dmax (BRM degradation, SW1573 cells, read-out: Dmax (% degraded)) is above 75%.

As a reminder, the DC50 is the midpoint of the concentration-degradation curve. As a reminder, the Dmax is the greatest extent of degradation seen.
